One may read the inhibition in vivo as the percentage by which the read-out fell short of the control. The low end stands for little suppression, the high end for strong suppression. The term IC50 denotes the concentration that gives 50% inhibition. What is called Cmax is the peak of the concentration-time curve. One may read the AUC as the area under the concentration-time curve, a measure of exposure. The low end stands for less exposure, the high end for more exposure. As a reminder, the solubility is how much of the substance goes into solution per volume. A word on the half-life: it is the time in which the quantity being followed falls by half. Lower therefore signals rapid decline. By bioavailability is commonly meant the share of a dose that reaches the circulation, judged against a reference dose that is usually intravenous. Read a low bioavailability as little systemic uptake. In general, Papp A→B refers to the apparent permeability from the apical to the basolateral side of a cell layer.

Bounds are passed on as bounds.

We go through two compounds from ChEMBL document CHEMBL6087482, “Discovery of INCB159020, an Orally Bioavailable KRAS G12D Inhibitor” (J Med Chem, 2025).

Data set [1] can be described thus: In vivo inhibition of ERK phosphorylation in tumor of mouse xenografted with HPAC cells at 6 mg/kg, po measured after 4 hrs relative to control. Type of data set: functional.
Data set [2] is described as follows: Drug concentration in mouse plasma xenografted with HPAC cells at 300 mg/kg, po measured after 24 hrs. Type of data set: ADME, organism-based.
The target in data set [3] is Cytochrome P450 2D6 (Homo sapiens, UniProt P10635). The data set can be described thus: Inhibition of CYP2D6 (unknown origin). The format is ADME.
Chain of Cytochrome P450 2D6 (P10635 whole entry): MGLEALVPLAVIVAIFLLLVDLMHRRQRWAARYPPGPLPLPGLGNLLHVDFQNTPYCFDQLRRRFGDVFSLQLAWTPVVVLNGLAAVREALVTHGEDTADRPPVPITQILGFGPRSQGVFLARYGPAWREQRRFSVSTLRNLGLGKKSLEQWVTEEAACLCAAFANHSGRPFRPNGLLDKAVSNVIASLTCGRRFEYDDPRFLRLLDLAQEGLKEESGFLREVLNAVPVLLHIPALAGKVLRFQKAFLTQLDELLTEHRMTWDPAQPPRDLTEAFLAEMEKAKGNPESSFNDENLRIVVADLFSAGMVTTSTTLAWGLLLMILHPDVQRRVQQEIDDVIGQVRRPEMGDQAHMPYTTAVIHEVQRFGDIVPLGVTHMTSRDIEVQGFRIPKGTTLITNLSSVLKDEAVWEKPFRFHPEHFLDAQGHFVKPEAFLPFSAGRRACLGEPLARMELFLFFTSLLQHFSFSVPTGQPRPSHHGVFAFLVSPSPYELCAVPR
The nature of data set [4]: Cmax in Non human primate at […], po or 1 mg/kg, iv. The format is ADME, organism-based. To be noted: primates, in vivo, dose 1.5 mg/kg.
Data set [5] deals with Cytochrome P450. The data set can be described thus: Time dependent inhibition of CYP (unknown origin). Type of data set: ADME, protein assay. To be noted: human.
The nature of data set [6]: Clearance in Sprague-Dawley rat assessed as hepatic blood flow at 3 mg/kg, po or 1 mg/kg, iv measured after 24 hrs by LC-MS/MS analysis. The format is ADME, organism-based. To be noted: in vivo.
Data set [7] deals with Voltage-gated inwardly rectifying potassium channel KCNH2 (Homo sapiens, UniProt Q12809). The data set can be described thus: Inhibition of human ERG. The format is toxicity.
Chain of Voltage-gated inwardly rectifying potassium channel KCNH2 (Q12809 whole entry): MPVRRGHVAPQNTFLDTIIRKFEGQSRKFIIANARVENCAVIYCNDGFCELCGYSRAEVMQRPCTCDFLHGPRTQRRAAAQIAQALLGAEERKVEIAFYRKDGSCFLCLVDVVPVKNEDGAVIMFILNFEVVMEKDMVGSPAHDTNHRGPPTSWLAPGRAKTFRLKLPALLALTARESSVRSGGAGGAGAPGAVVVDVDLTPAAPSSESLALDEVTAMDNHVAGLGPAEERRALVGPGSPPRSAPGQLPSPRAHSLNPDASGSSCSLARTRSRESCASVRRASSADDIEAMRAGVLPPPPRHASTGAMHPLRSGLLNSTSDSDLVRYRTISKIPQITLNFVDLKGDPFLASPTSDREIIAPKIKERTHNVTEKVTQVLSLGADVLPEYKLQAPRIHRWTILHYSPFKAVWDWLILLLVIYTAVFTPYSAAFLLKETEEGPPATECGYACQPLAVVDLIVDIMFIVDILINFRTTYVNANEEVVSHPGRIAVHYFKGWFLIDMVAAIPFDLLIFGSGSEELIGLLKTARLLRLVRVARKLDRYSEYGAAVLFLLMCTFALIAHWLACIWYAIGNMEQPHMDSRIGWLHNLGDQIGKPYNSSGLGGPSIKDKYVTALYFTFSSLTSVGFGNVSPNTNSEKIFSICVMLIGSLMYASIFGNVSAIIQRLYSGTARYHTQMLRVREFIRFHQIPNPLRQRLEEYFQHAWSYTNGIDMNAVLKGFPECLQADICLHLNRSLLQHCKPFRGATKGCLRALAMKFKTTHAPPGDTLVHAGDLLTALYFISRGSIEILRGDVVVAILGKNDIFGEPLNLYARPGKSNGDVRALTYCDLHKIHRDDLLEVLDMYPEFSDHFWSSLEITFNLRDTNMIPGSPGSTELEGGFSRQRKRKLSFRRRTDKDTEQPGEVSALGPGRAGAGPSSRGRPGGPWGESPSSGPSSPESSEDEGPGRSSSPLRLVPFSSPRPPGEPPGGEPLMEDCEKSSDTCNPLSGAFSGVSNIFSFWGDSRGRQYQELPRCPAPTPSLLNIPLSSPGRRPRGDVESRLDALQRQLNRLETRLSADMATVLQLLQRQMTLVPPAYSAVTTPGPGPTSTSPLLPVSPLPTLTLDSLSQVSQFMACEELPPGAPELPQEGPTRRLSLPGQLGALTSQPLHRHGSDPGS
Data set [8] is described as follows: Toxicity in mouse xenografted with human HPAC cells assessed as tolerance at 30 to 300 mg/kg, po measured after 24 hrs. Type of data set: organism-based. To be noted: in vivo, dose 30-300 mg/kg. On the technique in general: A xenograft is tissue or cells of one species grown in another, often human tumour cells in immunodeficient mice.
The target of data set [9] is T1, Cytochrome P450 1A2 (Homo sapiens, UniProt P05177).
T1 sequence (P05177 whole entry): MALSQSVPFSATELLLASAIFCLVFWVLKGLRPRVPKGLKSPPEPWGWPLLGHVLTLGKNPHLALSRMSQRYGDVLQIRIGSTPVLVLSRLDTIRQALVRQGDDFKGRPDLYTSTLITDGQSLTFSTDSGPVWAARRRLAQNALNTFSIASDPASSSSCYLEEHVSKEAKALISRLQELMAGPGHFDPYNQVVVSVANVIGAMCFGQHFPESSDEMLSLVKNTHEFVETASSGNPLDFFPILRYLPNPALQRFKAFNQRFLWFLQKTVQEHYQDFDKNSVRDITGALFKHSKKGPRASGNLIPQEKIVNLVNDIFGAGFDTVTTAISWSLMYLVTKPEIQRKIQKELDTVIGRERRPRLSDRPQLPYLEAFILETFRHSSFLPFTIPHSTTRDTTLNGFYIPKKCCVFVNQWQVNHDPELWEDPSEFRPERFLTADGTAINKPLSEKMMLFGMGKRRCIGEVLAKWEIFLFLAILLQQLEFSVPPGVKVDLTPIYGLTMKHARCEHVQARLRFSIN
The data set can be described thus: Inhibition of CYP1A2 (unknown origin). Type of data set: ADME.

Data set [10] can be described thus: Intrinsic clearance in human liver microsomes at 1 uM measured upto 30 mins in presence of NADPH by LC/MS analysis. Type of data set: ADME, Microsome. To be noted: read-out: CLH (converted). In general terms: Liver microsomes are vesicles of endoplasmic reticulum, rich in cytochrome P450 enzymes.
Data set [11] is described as follows: Drug concentration in mouse plasma xenografted with HPAC cells at 100 mg/kg, po measured after 24 hrs. Type of data set: ADME, organism-based.
Data set [12] can be described thus: AUC in Sprague-Dawley rat at 3 mg/kg, po or 1 mg/kg, iv measured after 24 hrs by LC-MS/MS analysis. The format is ADME, organism-based. To be noted: in vivo.
Data set [13] can be described thus: Solubility of compound in FASSIF. Type of data set: physicochemical.
In data set [14] the target is Cytochrome P450 2C9 (Homo sapiens, UniProt P11712). The data set can be described thus: Inhibition of CYP2C9 (unknown origin). The format is ADME.
Chain of Cytochrome P450 2C9 (P11712 whole entry): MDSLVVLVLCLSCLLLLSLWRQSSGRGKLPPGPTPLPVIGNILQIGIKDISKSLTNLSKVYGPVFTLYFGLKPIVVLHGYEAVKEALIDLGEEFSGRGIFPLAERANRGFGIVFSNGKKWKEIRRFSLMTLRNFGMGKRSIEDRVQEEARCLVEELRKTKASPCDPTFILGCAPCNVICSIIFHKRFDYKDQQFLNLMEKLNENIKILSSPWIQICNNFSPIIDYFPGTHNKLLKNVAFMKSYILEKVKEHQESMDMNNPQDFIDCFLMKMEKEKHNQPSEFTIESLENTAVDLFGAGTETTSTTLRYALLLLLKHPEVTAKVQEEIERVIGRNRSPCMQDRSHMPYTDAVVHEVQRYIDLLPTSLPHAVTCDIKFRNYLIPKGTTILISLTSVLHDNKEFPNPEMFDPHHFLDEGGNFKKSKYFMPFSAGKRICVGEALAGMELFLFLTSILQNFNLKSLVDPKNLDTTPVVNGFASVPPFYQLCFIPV
A short description of data set [15]: Half-life in Sprague-Dawley rat at 3 mg/kg, po or 1 mg/kg, iv measured after 24 hrs by LC-MS/MS analysis. Type of data set: ADME, organism-based. To be noted: in vivo.
The target in data set [16] is High affinity nerve growth factor receptor (Homo sapiens, UniProt P04629). The data set can be described thus: Binding affinity to TRKA (unknown origin) in presence of ATP.
Chain of High affinity nerve growth factor receptor (P04629 whole entry): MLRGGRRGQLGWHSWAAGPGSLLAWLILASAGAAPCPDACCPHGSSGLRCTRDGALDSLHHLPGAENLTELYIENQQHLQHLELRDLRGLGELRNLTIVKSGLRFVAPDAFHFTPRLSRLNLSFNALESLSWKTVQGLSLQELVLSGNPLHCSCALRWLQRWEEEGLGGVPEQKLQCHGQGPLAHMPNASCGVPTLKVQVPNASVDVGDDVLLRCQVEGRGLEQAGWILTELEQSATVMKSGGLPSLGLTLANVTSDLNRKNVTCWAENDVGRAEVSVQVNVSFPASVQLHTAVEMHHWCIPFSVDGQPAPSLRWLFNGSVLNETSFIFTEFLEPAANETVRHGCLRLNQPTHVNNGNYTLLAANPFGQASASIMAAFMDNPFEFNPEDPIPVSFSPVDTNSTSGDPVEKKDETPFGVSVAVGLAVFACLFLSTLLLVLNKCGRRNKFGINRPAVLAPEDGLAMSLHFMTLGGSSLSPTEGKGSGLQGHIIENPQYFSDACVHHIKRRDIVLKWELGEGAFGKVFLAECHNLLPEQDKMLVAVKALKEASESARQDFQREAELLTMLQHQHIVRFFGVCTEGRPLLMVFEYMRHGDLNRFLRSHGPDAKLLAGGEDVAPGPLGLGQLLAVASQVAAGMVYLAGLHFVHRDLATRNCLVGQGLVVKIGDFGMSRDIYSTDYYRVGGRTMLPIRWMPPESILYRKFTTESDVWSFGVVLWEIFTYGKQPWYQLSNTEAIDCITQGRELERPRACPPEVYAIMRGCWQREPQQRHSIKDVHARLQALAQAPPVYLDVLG
A short description of data set [17]: Solubility of compound in SGF. The format is physicochemical.
Data set [18] can be described thus: Cmax in Sprague-Dawley rat at 3 mg/kg, po or 1 mg/kg, iv measured after 24 hrs by LC-MS/MS analysis. The format is ADME, organism-based. To be noted: in vivo.
Data set [19] can be described thus: Oral bioavailability in Sprague-Dawley rat at 3 mg/kg measured after 24 hrs by LC-MS/MS analysis. Type of data set: ADME, organism-based. To be noted: in vivo.
The nature of data set [20]: Oral bioavailability in Non human primate at […]. To be noted: primates, in vivo, dose 1.5 mg/kg. The format is ADME, organism-based.
A short description of data set [21]: Half-life in Non human primate at […], po or 1 mg/kg, iv. To be noted: primates, in vivo, dose 1.5 mg/kg. Type of data set: ADME, organism-based.
In data set [22] the target is Cytochrome P450 3A4 (Homo sapiens, UniProt P08684). As to the kind of experiment: Inhibition of CYP3A4 (unknown origin). Type of data set: ADME.
Chain of Cytochrome P450 3A4 (P08684 whole entry): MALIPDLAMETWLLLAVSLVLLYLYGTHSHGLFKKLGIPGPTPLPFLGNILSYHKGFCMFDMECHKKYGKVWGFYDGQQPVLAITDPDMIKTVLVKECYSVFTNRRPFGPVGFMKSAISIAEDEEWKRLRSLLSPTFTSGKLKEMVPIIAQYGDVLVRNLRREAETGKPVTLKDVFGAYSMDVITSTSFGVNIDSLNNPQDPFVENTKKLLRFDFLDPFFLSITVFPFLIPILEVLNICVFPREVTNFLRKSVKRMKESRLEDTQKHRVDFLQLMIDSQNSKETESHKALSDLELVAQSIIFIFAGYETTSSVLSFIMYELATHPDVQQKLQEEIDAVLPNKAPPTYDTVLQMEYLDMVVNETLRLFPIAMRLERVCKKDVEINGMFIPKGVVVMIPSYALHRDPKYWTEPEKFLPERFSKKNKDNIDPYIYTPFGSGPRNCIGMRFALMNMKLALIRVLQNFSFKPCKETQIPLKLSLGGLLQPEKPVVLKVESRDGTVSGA
The target of data set [23] is T2, Cytochrome P450 2B6 (Homo sapiens, UniProt P20813).
T2 sequence (P20813 whole entry): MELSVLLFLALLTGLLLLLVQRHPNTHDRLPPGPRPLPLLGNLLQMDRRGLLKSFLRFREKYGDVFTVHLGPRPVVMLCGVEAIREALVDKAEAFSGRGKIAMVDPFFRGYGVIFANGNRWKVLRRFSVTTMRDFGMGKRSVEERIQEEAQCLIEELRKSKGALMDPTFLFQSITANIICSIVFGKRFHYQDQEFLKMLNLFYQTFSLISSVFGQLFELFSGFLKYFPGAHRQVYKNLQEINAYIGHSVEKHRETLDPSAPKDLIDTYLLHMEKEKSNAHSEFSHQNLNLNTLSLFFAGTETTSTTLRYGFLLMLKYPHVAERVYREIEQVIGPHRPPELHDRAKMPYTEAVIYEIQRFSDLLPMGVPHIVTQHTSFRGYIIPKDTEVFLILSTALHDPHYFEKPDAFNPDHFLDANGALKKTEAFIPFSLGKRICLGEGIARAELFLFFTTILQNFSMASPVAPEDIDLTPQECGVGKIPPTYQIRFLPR
The data set can be described thus: Inhibition of CYP2B6 (unknown origin). The format is ADME.

Data set [24] is described as follows: AUC in Non human primate at […], po or 1 mg/kg, iv. Type of data set: ADME, organism-based. To be noted: primates, in vivo, dose 1.5 mg/kg.
Data set [25] can be described thus: Apparent permeability across apical to basolateral side in human Caco-2 cells at 50 uM incubated for 120 mins by LC-MS analysis. The format is ADME, cell-based. For orientation: Caco-2 monolayers are a common model of the intestinal barrier.
For data set [26], the target named is Aurora kinase B (Homo sapiens, UniProt Q96GD4). The data set can be described thus: Binding affinity to Aurora B (unknown origin) in presence of ATP.
Chain of Aurora kinase B (Q96GD4 whole entry): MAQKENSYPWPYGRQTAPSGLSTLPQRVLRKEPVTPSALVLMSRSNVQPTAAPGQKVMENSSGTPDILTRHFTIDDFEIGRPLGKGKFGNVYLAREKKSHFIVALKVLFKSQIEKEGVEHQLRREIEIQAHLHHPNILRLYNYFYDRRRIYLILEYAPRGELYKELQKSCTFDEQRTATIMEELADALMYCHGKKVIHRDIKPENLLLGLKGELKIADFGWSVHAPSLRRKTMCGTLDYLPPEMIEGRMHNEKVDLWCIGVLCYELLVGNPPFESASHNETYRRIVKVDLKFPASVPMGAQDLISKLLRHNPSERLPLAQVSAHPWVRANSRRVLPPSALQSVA
The subject of data set [27] is Primates. As to the kind of experiment: Clearance in Non human primate assessed as hepatic blood flow at […], po or 1 mg/kg, iv. Type of data set: ADME, organism-based. To be noted: in vivo, dose 1.5 mg/kg.

In data set [1], `CC(=O)Nc1cccc(-n2c(=O)n(C3CC3)c(=O)c3c(Nc4ccc(I)cc4F)n(C)c(=O)c(C)c32)c1` [TRAMETINIB] returned an inhibition in vivo at 6 mg/kg of 99%.

As to `Cc1cnc(-c2nc3c(F)c(-c4cccc(Cl)c4C)c(CCC#N)cc3c3c2cc([C@@H](C)N2CCOCC2=O)n3[C@H]2[C@H]3CN[C@@H]2C3)cn1`, the concentration at 24 h is about 8.5 µM in data set [2] and about 950 nM in data set [11]. For the same compound, the IC50 was 7.2 µM in [3]; 11.2 µM in data set [7]; over 20 µM in data set [9]; over 20 µM in [14]; 3.9 µM in data set [16]; 17 µM in data set [22]. Moreover, the IC50 was over 20 µM in [23] and 5.8 µM in data set [26]. Further, the Cmax in data set [4] was found to be 100 nM; in [18] it was 57 nM. Moreover, in [5], the TDI result is “Not_active”. Besides, the QH was over 100% in data set [6] and 37% in data set [27]. Besides, the Activity entry in data set [8] is “Non-toxic”. Further, the hepatic clearance at 1 µM in [10] is 16.7 mL/min/kg. This compound also had an AUC at 24 h in data set [12] of 0.331 µM·h. Moreover, the solubility in data set [13] is over 79 µg/mL; in [17], over 900 µg/mL. Also, the half-life in data set [15] is 228 min; in data set [21], 384 min. Besides, the bioavailability in [19] was 27%; in [20], 42%. In addition, the AUC in data set [24] was determined as 0.95 µM·h. The Papp A→B at 2 h, 50 µM in data set [25] came to 3.6 ×10⁻⁶ cm/s.
